Results from patent US9593305B2, “Differentiation of pluripotent stem cells” (Janssen Biotech, Inc., priority 2008, dated 2017).

Test system: H1 human embryonic stem cells
Test: Step-wise differentiation, RT-PCR of differentiation markers (Example 17, Table 15)
Assay type: cell-based
Protocol: Stock cultures of human embryonic stem cells (H1 human embryonic stem cell line) were maintained in an undifferentiated, pluripotent state on reduced growth factor […]™ (BD Biosciences; Cat #356231)-coated dishes in MEF conditioned medium supplemented with 8 ng/ml bFGF (PeproTech Inc.; Cat #100-18B) with passage on average every four days. Passage was performed by exposing cell cultures to a solution of 1 mg/ml dispase (Invitrogen; Cat #17105-041) for 5 to 7 minutes at 37° C. followed by rinsing the monolayer with MEF conditioned culture medium and gentle scraping to recover cell clusters. Clusters were centrifuged at low speed to collect a cell pellet and remove residual dispase. Cell clusters were split at a 1:3 or 1:4 ratio for routine maintenance culture or a 1:1 ratio for immediate assay. All human ES cell lines were maintained at passage numbers less than 50 and routinely evaluated for normal karyotype and absence of mycoplasma.
Cell clusters were evenly resuspended in MEF conditioned medium supplemented with 8 ng/ml bFGF and plated onto reduced growth factor […]™-coated 24-well, black wall culture plates (Arctic White; Cat #AWLS-303012) in volumes of 0.5 ml/well. Daily feeding was conducted by aspirating spent culture medium from each well and replacing with an equal volume of fresh medium. Plates were maintained at 37° C., 5% CO2 throughout assay.
The assay was initiated by aspirating the culture medium from each well and adding back an aliquot (0.5 ml) of test medium. Test conditions for the first step of differentiation were conducted over a three-day period, feeding daily by aspirating and replacing the medium from each well with fresh test medium. On the first day of assay, 100 ng/ml activin A (PeproTech; Cat #120-14) or 100 ng/ml GDF-8 (R&D Systems, Cat #788-G8) was added to respective assay wells where each growth factor was diluted into RPMI-1640 medium (Invitrogen; Cat #: 22400) with 2% Albumin Bovine Fraction V, Fatty Acid Free (FAF BSA) (MP Biomedicals, Inc; Cat #152401). In some samples, 20 ng/ml Wnt3a (R&D Systems; Cat #1324-WN/CF) was also included. On the second day of assay, 100 ng/mlactivin A or 100 ng/ml GDF-8 was diluted into RPMI-1640 medium supplemented with 2% FAF BSA, omitting Wnt3a from all samples. In some test samples using GDF-8, Wnt3a was replaced with a given concentration of small molecule compound, added only on the first day of definitive endoderm differentiation. […] At the conclusion of the first step of differentiation, cells from some wells were harvested for flow cytometry analysis to evaluate levels of CXCR4, a marker of definitive endoderm formation. Additional wells were harvested for RT-PCR analysis to measure other markers of differentiation.
At the conclusion of the first step of definitive endoderm differentiation, replicate sets of parallel wells from each treatment group were subjected to further step-wise differentiation. It is important to note that after the first differentiation step, all wells undergoing subsequent culture and differentiation received the same treatment. The protocol for this continuing differentiation is described below.
Step 2 of the differentiation protocol was carried out over two days. Cells were fed daily by aspirating the medium from each well and replacing with a fresh aliquot (0.5 ml) of DMEM:F12 medium (Invitrogen; Cat #11330-032) containing 2% FAF BSA, 50 ng/ml FGF7 (PeproTech; Cat #100-19), and 250 nM cyclopamine-KAAD (Calbiochem; Cat #239804).
Step 3 of the differentiation protocol was carried out over four days. […]

[1] = Step 5, cells harvested at end of step, treatment given during step one

Activin A: recombinant human activin A (PeproTech), TGF-beta family member
RT-PCR CT Values AFP (Step 1): 32.8
RT-PCR CT Values CD9 (Step 1): 25.2
RT-PCR CT Values CD99 (Step 1): 24.0
RT-PCR CT Values CDH (Step 1): 21.8
RT-PCR CT Values CDH1 (Step 1): 26.1
RT-PCR CT Values CDX2 (Step 1): 36.0
RT-PCR CT Values CER1 (Step 1): 18.3
RT-PCR CT Values CXCR4 (Step 1): 20.4
RT-PCR CT Values FGF4 (Step 1): 34.0
RT-PCR CT Values FGF17 (Step 1): 20.7
RT-PCR CT Values FOXA2 (Step 1): 25.1
RT-PCR CT Values GAPDH (Step 1): 19.4
RT-PCR CT Values GATA4 (Step 1): 25.0
RT-PCR CT Values GATA6 (Step 1): 22.9
RT-PCR CT Values GSC (Step 1): 22.4
RT-PCR CT Values HLXB9 (Step 1): 24.8
RT-PCR CT Values KIT (Step 1): 22.7
RT-PCR CT Values MIXL1 (Step 1): 28.9
RT-PCR CT Values NANOG (Step 1): 24.1
RT-PCR CT Values OTX2 (Step 1): 22.5
RT-PCR CT Values POU5F1 (Step 1): 32.2
RT-PCR CT Values SOX7 (Step 1): 32.3
RT-PCR CT Values SOX17 (Step 1): 21.6
RT-PCR CT Values T (Step 1): 36.1
RT-PCR CT Values ALB (Step 3): 26.9
RT-PCR CT Values AMY2A (Step 3): 30.6
RT-PCR CT Values ARX (Step 3): 32.0
RT-PCR CT Values CDX2 (Step 3): 22.9
RT-PCR CT Values GAPDH (Step 3): 18.5
RT-PCR CT Values GCG (Step 3): 34.1
RT-PCR CT Values HNF4A (Step 3): 22.4
RT-PCR CT Values INS (Step 3): 34.8
RT-PCR CT Values ISL1 (Step 3): 29.3
RT-PCR CT Values MAFA (Step 3): 36.4
RT-PCR CT Values MAFB (Step 3): 27.4
RT-PCR CT Values NEUROD1 (Step 3): 30.1
RT-PCR CT Values NEUROG3 (Step 3): 28.0
RT-PCR CT Values NKX2-2 (Step 3): 29.3
RT-PCR CT Values NKX2-5 (Step 3): 34.6
RT-PCR CT Values NKX6-1 (Step 3): 32.2
RT-PCR CT Values PAX4 (Step 3): 31.4
RT-PCR CT Values PAX6 (Step 3): 40.0
RT-PCR CT Values PDX1 (Step 3): 23.3
RT-PCR CT Values PECAM (Step 3): 31.0
RT-PCR CT Values POU3F4 (Step 3): 30.5
RT-PCR CT Values PTF1A (Step 3): 34.6
RT-PCR CT Values SST (Step 3): 33.2
RT-PCR CT Values ZIC1 (Step 3): 34.8
RT-PCR CT Values ALB (Step 4): 22.4
RT-PCR CT Values AMY2A (Step 4): 28.6
RT-PCR CT Values ARX (Step 4): 23.9
RT-PCR CT Values CDX2 (Step 4): 23.7
RT-PCR CT Values GAPDH (Step 4): 19.0
RT-PCR CT Values GCG (Step 4): 22.8
RT-PCR CT Values HNF4A (Step 4): 22.1
RT-PCR CT Values INS (Step 4): 23.6
RT-PCR CT Values ISL1 (Step 4): 24.1
RT-PCR CT Values MAFA (Step 4): 30.6
RT-PCR CT Values MAFB (Step 4): 23.5
RT-PCR CT Values NEUROD1 (Step 4): 23.7
RT-PCR CT Values NEUROG3 (Step 4): 23.3
RT-PCR CT Values NKX2-2 (Step 4): 24.0
RT-PCR CT Values NKX2-5 (Step 4): 31.9
RT-PCR CT Values NKX6-1 (Step 4): 27.4
RT-PCR CT Values PAX4 (Step 4): 25.7
RT-PCR CT Values PAX6 (Step 4): 27.1
RT-PCR CT Values PDX1 (Step 4): 23.7
RT-PCR CT Values PECAM (Step 4): 29.8
RT-PCR CT Values POU3F4 (Step 4): 26.5
RT-PCR CT Values PTF1A (Step 4): 29.6
RT-PCR CT Values SST (Step 4): 24.3
RT-PCR CT Values ZIC1 (Step 4): 32.5
RT-PCR CT Values ALB (Step 5): 20.2
RT-PCR CT Values AMY2A (Step 5): 27.6
RT-PCR CT Values ARX (Step 5): 22.0
RT-PCR CT Values CDX2 (Step 5): 23.4
RT-PCR CT Values GAPDH (Step 5): 18.3
RT-PCR CT Values GCG (Step 5): 14.1
RT-PCR CT Values HNF4A (Step 5): 21.3
RT-PCR CT Values INS (Step 5): 14.9
RT-PCR CT Values ISL1 (Step 5): 22.4
RT-PCR CT Values MAFA (Step 5): 31.8
RT-PCR CT Values MAFB (Step 5): 22.2
RT-PCR CT Values NEUROD1 (Step 5): 22.8
RT-PCR CT Values NEUROG3 (Step 5): 28.1
RT-PCR CT Values NKX2-2 [1]: 23.7 CT
RT-PCR CT Values NKX2-5 [1]: 34.1 CT
RT-PCR CT Values NKX6-1 [1]: 25.5 CT
RT-PCR CT Values PAX4 [1]: 27.3 CT
RT-PCR CT Values PAX6 [1]: 24.0 CT
RT-PCR CT Values PDX1 [1]: 23.2 CT
RT-PCR CT Values PECAM [1]: 30.1 CT
RT-PCR CT Values POU3F4 [1]: 28.8 CT
RT-PCR CT Values PTF1A [1]: 27.3 CT
RT-PCR CT Values SST [1]: 19.6 CT
RT-PCR CT Values ZIC1 [1]: 34.4 CT
